Results as given in ChEMBL document CHEMBL2016544, “Low brain penetrant CB1 receptor agonists for the treatment of neuropathic pain” (Bioorg Med Chem Lett, 2012).
Converted amounts (≈) assume the structure as drawn. The source made the active and inactive calls. The rule behind the calls is not given here.

Legend:
[1] = Intrinsic clearance in human liver microsomes; format: ADME, Microsome; conditions: read-out: CLH
[2] = Intrinsic clearance in rat liver microsomes; format: ADME, Microsome; conditions: read-out: CLH
[3] = target: T1, Cannabinoid receptor 1 (Homo sapiens, UniProt P21554); test: Agonist activity at CB1 receptor; format: functional
T1 sequence (P21554 whole entry): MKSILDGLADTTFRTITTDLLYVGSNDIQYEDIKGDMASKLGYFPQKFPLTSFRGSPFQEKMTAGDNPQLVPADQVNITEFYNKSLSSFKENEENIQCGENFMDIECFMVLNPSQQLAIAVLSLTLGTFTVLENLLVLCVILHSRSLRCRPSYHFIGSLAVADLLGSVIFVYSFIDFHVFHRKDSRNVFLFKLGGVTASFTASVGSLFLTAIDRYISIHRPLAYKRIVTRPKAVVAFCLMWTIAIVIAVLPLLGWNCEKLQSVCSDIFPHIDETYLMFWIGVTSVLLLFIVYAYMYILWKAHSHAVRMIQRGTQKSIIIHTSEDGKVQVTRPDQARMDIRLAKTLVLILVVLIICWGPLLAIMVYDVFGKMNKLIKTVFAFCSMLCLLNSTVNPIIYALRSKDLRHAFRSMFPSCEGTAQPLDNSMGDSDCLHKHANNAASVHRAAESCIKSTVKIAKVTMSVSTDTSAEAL

[4] = system: Rattus norvegicus; test: Ratio of MED for toxicity in sc dosed rat assessed as catalepsy to ED50 for anti-allodynic activity in sc dosed rat Chung von Frey model of neuropathic pain; format: functional
[5] = system: Rattus norvegicus; test: Toxicity in sc dosed rat assessed as catalepsy by ring immobility test; format: organism-based; conditions: in vivo
[6] = system: Rattus norvegicus; test: Analgesic activity in sc dosed rat Chung von Frey model of neuropathic pain assessed as anti-allodynic effect against mechanical stimulus; format: functional
[7] = Ratio of drug level in brain to plasma in mouse; format: ADME, organism-based; conditions: read-out: BPR
[8] = Oral bioavailability in rat; format: ADME, organism-based; conditions: in vivo
[9] = Ratio of Cmax in CSF to free plasma of Wistar BRL rat at 24 mg/kg, po by LC-MS/MS analysis; format: ADME, organism-based; set-up: dose 24 mg/kg, route oral; conditions: in vivo
[10] = Ratio of Cmax in mouse brain to Cmax in mouse plasma at 3 umol/kg, iv; format: ADME
[11] = Efflux ratio of apparent permeability from basolateral to apical side over apical to basolateral side in human Caco2 cells; format: ADME, cell-based; conditions: Caco-2
[12] = system: Rattus norvegicus; test: Ratio of MED for toxicity in […] to ED50 for anti-allodynic activity in po dosed rat Chung von Frey model of neuropathic pain; format: functional
[13] = Cmax in Wistar BRL rat brain at 24 mg/kg, po by LC-MS/MS analysis; format: ADME, organism-based; set-up: dose 24 mg/kg, route oral
[14] = Ratio of Cmax in brain to plasma of Wistar BRL rat at 24 mg/kg, po by LC-MS/MS analysis; format: ADME, organism-based; set-up: dose 24 mg/kg, route oral
[15] = target: Voltage-gated inwardly rectifying potassium channel KCNH2 (Homo sapiens, UniProt Q12809); test: Displacement of [3H]dofetilide from human ERG
Voltage-gated inwardly rectifying potassium channel KCNH2, sequence (Q12809 whole entry): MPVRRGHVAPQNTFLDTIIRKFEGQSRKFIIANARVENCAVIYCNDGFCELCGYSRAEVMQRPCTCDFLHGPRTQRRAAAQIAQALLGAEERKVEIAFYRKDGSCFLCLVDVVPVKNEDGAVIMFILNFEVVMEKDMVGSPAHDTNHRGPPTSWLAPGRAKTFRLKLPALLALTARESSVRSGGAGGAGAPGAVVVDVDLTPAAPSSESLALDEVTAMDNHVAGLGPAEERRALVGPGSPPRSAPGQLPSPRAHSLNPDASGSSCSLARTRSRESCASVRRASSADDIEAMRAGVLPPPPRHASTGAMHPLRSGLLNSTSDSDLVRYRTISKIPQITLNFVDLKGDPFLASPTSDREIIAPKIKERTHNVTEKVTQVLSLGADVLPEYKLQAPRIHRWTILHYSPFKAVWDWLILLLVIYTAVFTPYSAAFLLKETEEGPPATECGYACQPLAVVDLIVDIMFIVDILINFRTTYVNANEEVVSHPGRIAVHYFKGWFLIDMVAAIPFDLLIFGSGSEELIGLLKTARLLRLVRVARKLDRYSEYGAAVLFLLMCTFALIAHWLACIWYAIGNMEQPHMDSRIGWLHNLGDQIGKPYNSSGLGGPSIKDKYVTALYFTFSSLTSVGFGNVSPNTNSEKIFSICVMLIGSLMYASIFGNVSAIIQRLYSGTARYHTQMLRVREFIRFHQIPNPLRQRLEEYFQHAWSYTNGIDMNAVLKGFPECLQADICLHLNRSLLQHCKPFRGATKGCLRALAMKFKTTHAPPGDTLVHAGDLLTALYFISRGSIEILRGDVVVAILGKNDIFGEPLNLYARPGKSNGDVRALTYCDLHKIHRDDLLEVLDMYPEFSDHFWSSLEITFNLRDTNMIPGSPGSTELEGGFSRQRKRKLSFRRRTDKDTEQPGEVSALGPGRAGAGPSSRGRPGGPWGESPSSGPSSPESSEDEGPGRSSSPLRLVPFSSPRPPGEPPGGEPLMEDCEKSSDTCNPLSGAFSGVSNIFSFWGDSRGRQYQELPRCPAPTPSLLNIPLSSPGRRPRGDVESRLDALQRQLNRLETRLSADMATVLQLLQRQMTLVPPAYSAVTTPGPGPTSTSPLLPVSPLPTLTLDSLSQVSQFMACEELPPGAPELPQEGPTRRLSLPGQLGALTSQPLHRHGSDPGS

[16] = target: T1, Cannabinoid receptor 1; test: Displacement of [3H]CP 55,940 from human CB1 receptor expressed in insect sf9 membranes; format: cell membranes
[17] = Cmax in mouse brain at 3 umol/kg, iv; format: ADME, organism-based; set-up: dose 3 umol/kg, route intravenous
[18] = Intrinsic clearance in rabbit liver microsomes; format: ADME, Oryctolagus cuniculus, Microsome; conditions: read-out: CLH
[19] = system: Rattus norvegicus; test: Analgesic activity in po dosed rat Chung von Frey model of neuropathic pain assessed as anti-allodynic effect against mechanical stimulus in presence of CB1 receptor antagonist rimonabant; format: functional, organism-based
[20] = Intrinsic clearance in mouse liver microsomes; format: ADME, Microsome; conditions: read-out: CLH
[21] = Intrinsic clearance in human hepatocytes assessed per million cells; format: ADME, cell-based, Hepatocyte; conditions: read-out: CLH
[22] = Ratio of AUC in brain to plasma of Wistar BRL rat at 24 mg/kg, po by LC-MS/MS analysis; format: ADME, organism-based; set-up: dose 24 mg/kg, route oral; conditions: read-out: Ratio AUC
[23] = target: Cannabinoid receptor 2 (Homo sapiens, UniProt P34972); test: Displacement of [3H]CP 55,940 from human CB2 receptor expressed in insect sf9 membranes; format: cell membranes
Cannabinoid receptor 2, sequence (P34972 whole entry): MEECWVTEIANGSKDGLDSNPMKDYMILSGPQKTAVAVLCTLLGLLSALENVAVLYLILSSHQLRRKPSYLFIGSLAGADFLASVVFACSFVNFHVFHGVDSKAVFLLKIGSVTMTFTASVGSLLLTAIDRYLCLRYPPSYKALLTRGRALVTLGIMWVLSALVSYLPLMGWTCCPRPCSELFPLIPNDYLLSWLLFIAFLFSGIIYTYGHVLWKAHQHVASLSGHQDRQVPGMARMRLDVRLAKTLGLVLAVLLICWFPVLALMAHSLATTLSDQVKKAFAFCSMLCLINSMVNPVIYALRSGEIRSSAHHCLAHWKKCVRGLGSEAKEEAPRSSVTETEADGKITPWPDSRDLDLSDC

[24] = Half life in rat at 2 mg/kg, iv; format: ADME, organism-based; set-up: dose 2 mg/kg, route intravenous; conditions: in vivo
[25] = Cmax in Wistar BRL rat plasma at 24 mg/kg, po by LC-MS/MS analysis; format: ADME, organism-based; set-up: dose 24 mg/kg, route oral
[26] = Plasma protein binding in rat; format: ADME, cell-free; conditions: read-out: PPB (converted)
[27] = Ratio of AUC in mouse brain to AUC in mouse plasma at 3 umol/kg, iv; format: ADME; conditions: read-out: Ratio AUC
[28] = Cmax in mouse plasma at 3 umol/kg, iv; format: ADME, organism-based; set-up: dose 3 umol/kg, route intravenous
[29] = Ratio of AUC in CSF to free plasma of Wistar BRL rat at 24 mg/kg, po by LC-MS/MS analysis; format: ADME, organism-based; set-up: dose 24 mg/kg, route oral; conditions: in vivo
[30] = Oral bioavailability in rat at 10 mg/kg; format: ADME, organism-based; conditions: in vivo
[31] = Apparent permeability across human Caco2 cells; format: ADME, cell-based; conditions: Caco-2
[32] = Solubility of the compound at pH 7.4; format: physicochemical; conditions: buffer
[33] = system: Rattus norvegicus; test: Analgesic activity in po dosed rat Chung von Frey model of neuropathic pain assessed as anti-allodynic effect against mechanical stimulus; format: functional
[34] = Clearance in rat at 2 mg/kg, iv; format: ADME, organism-based; set-up: dose 2 mg/kg, route intravenous; conditions: in vivo
[35] = Intrinsic clearance in rat hepatocytes assessed per million cells; format: ADME, cell-based, Hepatocyte; conditions: read-out: CLH
[36] = system: Rattus norvegicus; test: Toxicity in po dosed rat assessed as catalepsy by ring immobility test; format: organism-based; conditions: in vivo
[37] = Volume of distribution at steady state in rat at 2 mg/kg, iv; format: ADME, organism-based; set-up: dose 2 mg/kg, route intravenous; conditions: in vivo, read-out: Vdss
[38] = Intrinsic clearance in dog liver microsomes; format: ADME, Canis lupus familiaris, Microsome; conditions: read-out: CLH
[39] = Plasma protein binding in rabbit; format: ADME, cell-free, Oryctolagus cuniculus; conditions: read-out: PPB (converted)
[40] = Cmax in Wistar BRL rat CSF at 24 mg/kg, po by LC-MS/MS analysis; format: ADME, organism-based, Cerebrospinal fluid; set-up: dose 24 mg/kg, route oral
[41] = Plasma protein binding in human; format: ADME, cell-free; conditions: read-out: PPB (converted)
[42] = Plasma protein binding in dog; format: ADME, cell-free, Canis lupus familiaris; conditions: read-out: PPB (converted)
[43] = Plasma protein binding in mouse; format: ADME, cell-free; conditions: read-out: PPB (converted)
[44] = system: Rattus norvegicus; test: Analgesic activity in po dosed rat Chung Hargreaves model of neuropathic pain assessed as inhibition of thermal hyperalgesia; format: functional

Compound: O=C(NCCO)C1CCN(Cc2nc(-c3cn(CC4CCOCC4)c4c(Cl)cccc34)ns2)CC1
- microsomal CLint [1]: 18 µL/min/mg
- microsomal CLint [2]: 49 µL/min/mg
- EC50 [3]: 79.4 nM

Compound: COc1cccc2c(-c3nsc(CN(C)CC(N)=O)n3)cn(CC3CCOCC3)c12
- EC50 [3]: 1260 nM

Compound: CN(CC(N)=O)Cc1nc(-c2cn(CC3CCS(=O)(=O)CC3)c3c(Cl)cccc23)ns1
- microsomal CLint [1]: 25 µL/min/mg
- microsomal CLint [2]: 52 µL/min/mg
- EC50 [3]: 158 nM

Compound: NC(=O)CN1CCN(Cc2nc(-c3cn(CC4CCS(=O)(=O)CC4)c4c(Cl)cccc34)ns2)CC1
- microsomal CLint [1]: < 12 µL/min/mg
- microsomal CLint [2]: < 12 µL/min/mg
- pEC50 [3]: 6.7

Compound: Cc1c(C(=O)c2cccc3ccccc23)c2cccc3c2n1[C@H](CN1CCOCC1)CO3 [WIN-552122]
- Ratio [4]: 3.7
- MED [5]: 5.7 µmol/kg
- ED50 [6]: 1.6 µmol/kg
- Kp [7]: 1.3
- bioavailability [8]: 0%

Compound: NC(=O)CN1CCN(Cc2nc(-c3cn(CC4CCOCC4)c4c(Cl)cccc34)no2)CC1
- Ratio [9]: 0.23
- microsomal CLint [1]: 12 µL/min/mg
- Kp [10]: 0.16
- efflux ratio [11]: 1.5
- Ratio [12]: >9.3
- Cmax [13]: 148 ng/g
- Kp [14]: 0.2
- Ki [15]: 20000 nM
- Ki [16]: 20 nM
- Cmax [17]: 134 ng/g
- microsomal CLint [18]: < 12 µL/min/mg
- Activity [19]: inactive
- microsomal CLint [20]: < 12 µL/min/mg
- hepatocyte CLint [21]: 3 µL/min/1e6 cells
- Kp [22]: 0.22
- Ki [23]: 50.1 nM
- microsomal CLint [2]: < 12 µL/min/mg
- half-life [24]: 3.8 h
- Cmax [25]: 722 ng/mL
- fraction unbound [26]: 0.039
- Kp [27]: 0.16
- Cmax [28]: 814 ng/mL
- Ratio AUC [29]: 0.21
- bioavailability [30]: 45%
- Papp [31]: 6.2 ×10⁻⁶ cm/s
- solubility [32]: 89 µg/mL (≈ 188 µM)
- ED50 [33]: 17 µmol/kg
- clearance [34]: 9.5 mL/min/kg
- hepatocyte CLint [35]: 7 µL/min/1e6 cells
- MED [36]: > 160 µmol/kg
- Vd [37]: 2.6 L/kg
- microsomal CLint [38]: 13 µL/min/mg
- Kp [7]: 0.16
- fraction unbound [39]: 0.037
- bioavailability [8]: 45%
- Cmax [40]: 6.4 ng/mL
- fraction unbound [41]: 0.04
- fraction unbound [42]: 0.063
- fraction unbound [43]: 0.034
- ED50 [44]: 2.5 µmol/kg

Compound: NC(=O)CN1CCN(Cc2nc(-c3cn(CC4CCOCC4)c4c(Cl)cccc34)ns2)CC1
- microsomal CLint [1]: 23 µL/min/mg
- microsomal CLint [2]: 23 µL/min/mg
- EC50 [3]: 63.1 nM

Compound: COc1cccc2c(-c3nsc(CN4CCC(C(=O)NCCO)CC4)n3)cn(CC3CCOCC3)c12
- microsomal CLint [1]: 19 µL/min/mg
- microsomal CLint [2]: 33 µL/min/mg
- EC50 [3]: 31.6 nM

Compound: O=C(NCCO)C1CCN(Cc2nc(-c3cn(CC4CCOCC4)c4c(Cl)cccc34)no2)CC1
- microsomal CLint [1]: 16 µL/min/mg
- Ki [16]: 3.98 nM
- Ki [23]: 20 nM
- microsomal CLint [2]: 18 µL/min/mg
- Kp [7]: 0.03
- bioavailability [8]: 8%

Compound: CN(CC(N)=O)Cc1nc(-c2cn(CC3CCS(=O)(=O)CC3)c3c(Cl)cccc23)no1
- microsomal CLint [1]: 26 µL/min/mg
- microsomal CLint [2]: 33 µL/min/mg
- EC50 [3]: 158 nM

Compound: CN(CC(=O)NCCO)Cc1nc(-c2cn(CC3CCOCC3)c3c(Cl)cccc23)no1
- microsomal CLint [1]: 66 µL/min/mg
- microsomal CLint [2]: 49 µL/min/mg

Compound: NC(=O)CN1CCN(Cc2nc(-c3cn(CC4CCS(=O)(=O)CC4)c4c(Cl)cccc34)no2)CC1
- microsomal CLint [1]: < 12 µL/min/mg
- microsomal CLint [2]: 48 µL/min/mg
- EC50 [3]: 501 nM

Compound: COc1cccc2c(-c3noc(CN(C)CC(N)=O)n3)cn(CC3CCOCC3)c12
- EC50 [3]: 2510 nM

Compound: O=C(NCCO)C1CCN(Cc2nc(-c3cn(CC4CCS(=O)(=O)CC4)c4c(Cl)cccc34)no2)CC1
- microsomal CLint [1]: < 12 µL/min/mg
- microsomal CLint [2]: < 12 µL/min/mg
- EC50 [3]: 1000 nM

Compound: O=C(NCCO)[C@H]1CCCN(Cc2nc(-c3cn(CC4CCS(=O)(=O)CC4)c4c(Cl)cccc34)ns2)C1
- microsomal CLint [1]: 47 µL/min/mg
- Ki [16]: 31.6 nM
- Ki [23]: 20 nM
- microsomal CLint [2]: 32 µL/min/mg
- solubility [32]: 45 µg/mL (≈ 79.5 µM)
- Kp [7]: 0.03
- bioavailability [8]: 1%
- EC50 [3]: 20 nM

Compound: COc1cccc2c(-c3nsc(CN4CCN(CC(N)=O)CC4)n3)cn(CC3CCOCC3)c12
- microsomal CLint [1]: 17 µL/min/mg
- Ki [16]: 6.31 nM
- Ki [23]: 15.8 nM
- microsomal CLint [2]: 17 µL/min/mg
- solubility [32]: 5 µg/mL (≈ 10.3 µM)
- Kp [7]: 0.18
- bioavailability [8]: 40%
- EC50 [3]: 79.4 nM

Compound: CN(CC(N)=O)Cc1nc(-c2cn(CC3CCOCC3)c3c(Cl)cccc23)no1.Cl
- microsomal CLint [1]: 36 µL/min/mg
- microsomal CLint [2]: 43 µL/min/mg
- Kp [7]: 0.9

Compound: CN(CC(N)=O)Cc1nc(-c2cn(CC3CCOCC3)c3c(Cl)cccc23)ns1
- EC50 [3]: 631 nM

Compound: COc1cccc2c(-c3noc(CN4CCC(C(=O)NCCO)CC4)n3)cn(CC3CCOCC3)c12
- EC50 [3]: 631 nM
